Reference: the CheMixHub ionic liquid set

Test: xn = mol fraction of the nth substance listed
Conditions: 298.15 K, 101 kPa

Cc1ncc(C[n+]2csc(CCO)c2C)c(N)n1.Cl.[Cl-] + CCCCCCCCCCCCOS(=O)(=O)[O-].[Na+] + O
Conditions | electrical conductivity [S/m]
x2 = 0, x1 = 1.8e-07 | 0.00291
x2 = 0, x1 = 9e-07 | 0.00489
x2 = 0, x1 = 1.8e-06 | 0.00788
x2 = 7.35e-06, x1 = 1.8e-07 | 0.00635
x2 = 7.35e-06, x1 = 9e-07 | 0.00839
x2 = 7.35e-06, x1 = 1.8e-06 | 0.0119
x2 = 1.463e-05, x1 = 1.8e-07 | 0.0099
x2 = 1.463e-05, x1 = 9e-07 | 0.0118
x2 = 1.463e-05, x1 = 1.8e-06 | 0.0158
x2 = 2.18e-05, x1 = 1.8e-07 | 0.0131
x2 = 2.18e-05, x1 = 9e-07 | 0.0152
x2 = 2.18e-05, x1 = 1.8e-06 | 0.0196
x2 = 2.901e-05, x1 = 1.8e-07 | 0.0163
x2 = 2.901e-05, x1 = 9e-07 | 0.0186
x2 = 2.901e-05, x1 = 1.8e-06 | 0.0233
x2 = 3.604e-05, x1 = 1.8e-07 | 0.0196
x2 = 3.604e-05, x1 = 9e-07 | 0.0219
x2 = 3.604e-05, x1 = 1.8e-06 | 0.027
x2 = 4.307e-05, x1 = 1.8e-07 | 0.0228
x2 = 4.307e-05, x1 = 9e-07 | 0.0251
x2 = 4.307e-05, x1 = 1.8e-06 | 0.0308
x2 = 4.991e-05, x1 = 1.8e-07 | 0.026
x2 = 4.991e-05, x1 = 9e-07 | 0.0282
x2 = 4.991e-05, x1 = 1.8e-06 | 0.0347
x2 = 5.676e-05, x1 = 1.8e-07 | 0.0292
x2 = 5.676e-05, x1 = 9e-07 | 0.0312
x2 = 5.676e-05, x1 = 1.8e-06 | 0.0384
x2 = 6.361e-05, x1 = 1.8e-07 | 0.0323
x2 = 6.361e-05, x1 = 9e-07 | 0.0342
x2 = 6.361e-05, x1 = 1.8e-06 | 0.0421
x2 = 7.027e-05, x1 = 1.8e-07 | 0.0354
x2 = 7.027e-05, x1 = 9e-07 | 0.0372
x2 = 7.028e-05, x1 = 1.8e-06 | 0.0457
x2 = 7.694e-05, x1 = 1.8e-07 | 0.0385
x2 = 7.694e-05, x1 = 9e-07 | 0.0402
x2 = 7.694e-05, x1 = 1.8e-06 | 0.0492
x2 = 8.361e-05, x1 = 1.8e-07 | 0.0414
x2 = 8.361e-05, x1 = 9e-07 | 0.0431
x2 = 8.361e-05, x1 = 1.8e-06 | 0.0526
x2 = 9.009e-05, x1 = 1.8e-07 | 0.0443
x2 = 9.009e-05, x1 = 9e-07 | 0.046
x2 = 9.009e-05, x1 = 1.8e-06 | 0.0557
x2 = 9.658e-05, x1 = 1.8e-07 | 0.0471
x2 = 9.658e-05, x1 = 9e-07 | 0.0489
x2 = 9.658e-05, x1 = 1.8e-06 | 0.0587
x2 = 0.0001031, x1 = 1.8e-07 | 0.0498
x2 = 0.0001031, x1 = 9e-07 | 0.0518
x2 = 0.0001031, x1 = 1.8e-06 | 0.0616
x2 = 0.0001094, x1 = 1.8e-07 | 0.0524
x2 = 0.0001094, x1 = 9e-07 | 0.0545
x2 = 0.0001094, x1 = 1.8e-06 | 0.0643
x2 = 0.0001157, x1 = 1.8e-07 | 0.0549
x2 = 0.0001157, x1 = 9e-07 | 0.0571
x2 = 0.0001157, x1 = 1.8e-06 | 0.0668
x2 = 0.000122, x1 = 1.8e-07 | 0.0574
x2 = 0.000122, x1 = 9e-07 | 0.0595
x2 = 0.000122, x1 = 1.8e-06 | 0.0691
x2 = 0.0001281, x1 = 1.8e-07 | 0.0597
x2 = 0.0001281, x1 = 9e-07 | 0.0615
x2 = 0.0001281, x1 = 1.8e-06 | 0.0712
x2 = 0.0001342, x1 = 1.8e-07 | 0.0619
x2 = 0.0001342, x1 = 9e-07 | 0.0635
x2 = 0.0001342, x1 = 1.8e-06 | 0.0732
x2 = 0.0001404, x1 = 1.8e-07 | 0.0639
x2 = 0.0001404, x1 = 9e-07 | 0.0653
x2 = 0.0001404, x1 = 1.8e-06 | 0.0751
x2 = 0.0001465, x1 = 1.8e-07 | 0.0656
x2 = 0.0001465, x1 = 9e-07 | 0.0669
x2 = 0.0001465, x1 = 1.8e-06 | 0.077
x2 = 0.0001524, x1 = 1.8e-07 | 0.0672
x2 = 0.0001524, x1 = 9e-07 | 0.0685
x2 = 0.0001524, x1 = 1.8e-06 | 0.0789
x2 = 0.0001584, x1 = 1.8e-07 | 0.0687
x2 = 0.0001584, x1 = 9e-07 | 0.0699
x2 = 0.0001584, x1 = 1.8e-06 | 0.0807
x2 = 0.0001641, x1 = 1.8e-07 | 0.07
x2 = 0.0001641, x1 = 9e-07 | 0.0712
x2 = 0.0001641, x1 = 1.8e-06 | 0.0825
x2 = 0.0001699, x1 = 1.8e-07 | 0.0712
x2 = 0.0001699, x1 = 9e-07 | 0.0724
x2 = 0.0001699, x1 = 1.8e-06 | 0.0842
x2 = 0.0001757, x1 = 1.8e-07 | 0.0724
x2 = 0.0001757, x1 = 9e-07 | 0.0736
x2 = 0.0001757, x1 = 1.8e-06 | 0.0857
x2 = 0.0001814, x1 = 1.8e-07 | 0.0735
x2 = 0.0001814, x1 = 9e-07 | 0.0748
x2 = 0.0001814, x1 = 1.8e-06 | 0.0872
x2 = 0.000187, x1 = 1.8e-07 | 0.0745
x2 = 0.000187, x1 = 9e-07 | 0.076
x2 = 0.000187, x1 = 1.8e-06 | 0.0885
x2 = 0.0001928, x1 = 1.8e-07 | 0.0755
x2 = 0.0001928, x1 = 9e-07 | 0.0771
x2 = 0.0001928, x1 = 1.8e-06 | 0.0898
x2 = 0.0001982, x1 = 1.8e-07 | 0.0765
x2 = 0.0001982, x1 = 9e-07 | 0.0782
x2 = 0.0001982, x1 = 1.8e-06 | 0.0911
x2 = 0.0002038, x1 = 1.8e-07 | 0.0775
x2 = 0.0002038, x1 = 9e-07 | 0.0794
x2 = 0.0002038, x1 = 1.8e-06 | 0.0924
x2 = 0.0002092, x1 = 1.8e-07 | 0.0784
x2 = 0.0002092, x1 = 9e-07 | 0.0805
x2 = 0.0002092, x1 = 1.8e-06 | 0.0937
x2 = 0.0002147, x1 = 1.8e-07 | 0.0793
x2 = 0.0002148, x1 = 9e-07 | 0.0816
x2 = 0.0002148, x1 = 1.8e-06 | 0.0949
x2 = 0.00022, x1 = 1.8e-07 | 0.0802
x2 = 0.00022, x1 = 9e-07 | 0.0826
x2 = 0.00022, x1 = 1.8e-06 | 0.0961
x2 = 0.0002254, x1 = 1.8e-07 | 0.081
x2 = 0.0002254, x1 = 9e-07 | 0.0837
x2 = 0.0002254, x1 = 1.8e-06 | 0.0973
x2 = 0.0002306, x1 = 1.8e-07 | 0.0819
x2 = 0.0002306, x1 = 9e-07 | 0.0848
x2 = 0.0002306, x1 = 1.8e-06 | 0.0983
x2 = 0.0002358, x1 = 1.8e-07 | 0.0827
x2 = 0.0002358, x1 = 9e-07 | 0.0858
x2 = 0.0002358, x1 = 1.8e-06 | 0.0993
x2 = 0.0002411, x1 = 1.8e-07 | 0.0836
x2 = 0.0002411, x1 = 9e-07 | 0.0869
x2 = 0.0002411, x1 = 1.8e-06 | 0.1
